Tests used:
[1] = test system: Staphylococcus aureus ATCC 6538; assay: MIC by the agar dilution method; format: cell-based; conditions: pH 5.5
Experimental: (§1) To assess the anti-microbial potency of Neramexane against bacteria strains which are relevant for atopic dermatitis and localized skin infections (“impetigo”), the minimal inhibitory concentration (MIC) against the following bacteria is established:
(§2) The MICs of the samples are determined using the agar dilution method based on DIN 58940. Petri dishes of 5.5 cm diameter are poured with 2.5 ml of freshly prepared Mueller-Hinton agar 2-fold concentrated (Merck company, Cat-No 1.05437), pH 5.5, maintained in liquid form at 50° C., to which the sample dilutions at various concentrations has been added at 50.0 vol.-%.
(§3) Neramexane-Mesylate is tested in the concentration range of 6.25-1*10^−2%. All test solutions are adjusted to pH 5.5.
(§4) For inoculation, 1 μl of the respective germ suspension is placed on the centre of each agar plate. After drying, inoculated plates are incubated at 36.0±2.0° C. The basis for the length of incubation period is the respective growth control cultivated in parallel.
(§5) The test microbe suspension is prepared by inoculating a few individual colonies of the respective bacteria into sterile saline solution until a turbidity corresponding to the McFarland standard 1.0 (approximately 10^8 cfu/ml) is reached. After that, the test microbe suspensions are further diluted 1:10 with saline solution and the microbial counts (see Table 33) are determined by the surface spread method using a spiral plater.
(§6) The agar plates are incubated under the conditions given in Table 34 and subsequently evaluated. The MIC-values as given represent the lowest concentration of the active substance at which there is no macroscopically visible growth. Minimal, barely visible growth or few small individual colonies are evaluated as inhibition.
(§7) The growth of bacteria is indicated for the duplicate plates by a +(i.e., growth) or a −(i.e., no growth), +− indicates weak growth on both plates or growth on one plate and no growth on the other plate. Both bacteria-strains show appropriate growth on the respective control plate not containing any test compound. No influence of the used diluent (Aqua purifacata) is observed. No contamination is observed on the control-plates. In general it has to be considered that values determined by the used method can vary by a factor of 2 (for 1:2 dilutions).

[2] = test system: Streptococcus pyogenes ATCC 12344; assay: MIC by the agar dilution method; format: cell-based; conditions: pH 5.5
Experimental: as §1, §2, §3, §4, §5, §6, §7

Propionibacterium acnes = assay: Log reduction assay; format: cell-based; conditions: 3.125% solution
Experimental: In order to determine the efficacy of Neramexane against a specific microorganism population (i.e., Propionibacterium acnes), a log reduction assay is performed. The organisms are prepared by inoculating the fluid thioglycolate (FTM). The microorganism is then incubated at 35.2±2.5° C. for 24 hours. The microbial suspension is adjusted to approximately 107 to 108 colony forming units (CFU) per mL and labeled as the stock suspension. […] Then […] is transferred into 11 mL of DI water to prepare a 3.125% solution. This solution is then inoculated with the microorganism and tested at time intervals of 30 seconds, 1 minute, and 5 minutes. One milliliter from each dilution is spread plated in duplicate onto tryptic soy agar with 5% sheep blood. The plates are incubated anaerobically at 35.2±2.5° C. for a minimum of 48 hours. The same procedure is repeated for the Phosphate Buffer Saline control. After the incubation period, all plates are counted to determine the number of microorganisms remaining at each time point. The concentration of each microorganism for the control and product is calculated for each interval. The log reduction is calculated to determine the change (reduction or increase) of the microorganism population relative to a starting inoculum. The minimum required bactericidal concentration is defined as a 3 log reduction from the initial inoculum.

dermal application sites = assay: Local tolerability of topical formulation, 14 days of daily dermal treatment; format: in vivo, Göttingen minipigs
Experimental: The objective of this study is to evaluate the local tolerance of Neramexane mesylate in a topical formulation at different dose levels after 14 days of daily dermal treatment to minipigs.
The study is performed in 4 female Gottingen SPF minipigs (from Ellegaard Gottingen Minipigs Aps). Each animal has 5 application sites (25 cm^2) marked on the back and is dosed for 8 hours each day. Each test site is used for the same test item or placebo throughout the study. The test group is treated with Neramexane mesylate at the following concentrations: 0, 0.5, 2.5, 5.0 and 10.0% (w/w).
Clinical signs are recorded 2-4 hours post start of each treatment and the local dermal reactions (erythema, oedema) are evaluated prior to treatment. Body weight is recorded weekly (and also on Day 1 and at necropsy).

[3] = 0.5, 2.5, 5.0 and 10.0% (w/w), dermal, 14 days

CC1(C)CC(C)(C)CC(C)(N)C1.CS(=O)(=O)O [Neramexane mesylate]
growth of bacteria on duplicate plates (MIC determination) ([1]; final concentration 0.01 %): + +
growth of bacteria on duplicate plates (MIC determination) ([1]; final concentration 0.04 %): + +
growth of bacteria on duplicate plates (MIC determination) ([1]; final concentration 0.08 %): + +
growth of bacteria on duplicate plates (MIC determination) ([1]; final concentration 0.16 %): + +
growth of bacteria on duplicate plates (MIC determination) ([1]; final concentration 0.31 %): + +
growth of bacteria on duplicate plates (MIC determination) ([1]; final concentration 0.63 %): + −
growth of bacteria on duplicate plates (MIC determination) ([1]; final concentration 1.56 %): − −
growth of bacteria on duplicate plates (MIC determination) ([1]; final concentration 2.50 %): − −
growth of bacteria on duplicate plates (MIC determination) ([1]; final concentration 3.13 %): − −
growth of bacteria on duplicate plates (MIC determination) ([1]; final concentration 6.25 %): − −
MIC [1]: 1.56%
growth of bacteria on duplicate plates (MIC determination) ([2]; final concentration 0.01 %): + +
growth of bacteria on duplicate plates (MIC determination) ([2]; final concentration 0.04 %): + +
growth of bacteria on duplicate plates (MIC determination) ([2]; final concentration 0.08 %): − −
growth of bacteria on duplicate plates (MIC determination) ([2]; final concentration 0.16 %): − −
growth of bacteria on duplicate plates (MIC determination) ([2]; final concentration 0.31 %): − −
growth of bacteria on duplicate plates (MIC determination) ([2]; final concentration 0.63 %): − −
growth of bacteria on duplicate plates (MIC determination) ([2]; final concentration 1.56 %): − −
growth of bacteria on duplicate plates (MIC determination) ([2]; final concentration 2.50 %): − −
growth of bacteria on duplicate plates (MIC determination) ([2]; final concentration 3.13 %): − −
growth of bacteria on duplicate plates (MIC determination) ([2]; final concentration 6.25 %): − −
MIC [2]: 0.08%
% Reduction (Propionibacterium acnes; exposure time 30 sec): 91.6%
Concentration of Organism (CFU/mL) (Propionibacterium acnes; exposure time 30 sec): 1.8E+04 CFU/mL
Log Reduction (Propionibacterium acnes; exposure time 30 sec): 1.1
% Reduction (Propionibacterium acnes; exposure time 1 min): 79.0%
Concentration of Organism (CFU/mL) (Propionibacterium acnes; exposure time 1 min): 4.4E+04 CFU/mL
Log Reduction (Propionibacterium acnes; exposure time 1 min): 0.7
% Reduction (Propionibacterium acnes; exposure time 5 min): 100.0%
Concentration of Organism (CFU/mL) (Propionibacterium acnes; exposure time 5 min): <10 CFU/mL
Log Reduction (Propionibacterium acnes; exposure time 5 min): 4.3
test item related changes (conclusion) (dermal application sites; 0.5%, 2.5%, 5% and 10% in a topical formulation, 14 Days): no test item related changes
clinical signs and body weight gain (dermal application sites; [3]): No test item related changes are observed
dermal skin reactions (erythema, oedema) (dermal application sites; [3]): no test item related dermal skin reactions are observed
gross necropsy (dermal application sites; [3]): no macroscopic changes are observed
histopathology evaluation of the dermal application sites (dermal application sites; [3]): no treatment-related macroscopic or microscopic findings

Reference: patent publication US20140228440A1, “1-AMINO-ALKYLCYCLOHEXANE DERIVATIVES FOR THE TREATMENT OF INFLAMMATORY SKIN DISEASES” (MERZ PHARMA GmbH & CO. KGaA, priority 2008, published 2014)
